Reference: patent US20090227600A1, “4-(PYRAZINE-2-YL) -PYRROLIDINE -2-CARBOXYLIC ACID COMPOUNDS AND DERIVATIVES THEREOF AS HEPATITIS C VIRUS INHIBITORS” (priority 2004, published 2009)
pIC50: −log10 of the molar value.

Legend:
[1] = target: T1, HCV RNA Polymerase, recombinant full-length NS5B, genotype 1b (Hepatitis C virus genotype 1b, UniProt Q9WMX2); assay: In vitro HCV RNA-dependent RNA polymerase inhibition assay, genotype 1b full-length enzyme; type: biochemical, HCV genotype 1b; details: genotype 1b full-length NS5B enzyme
T1 construct: Recombinant full-length NS5B; made in house
T1 sequence (Q9WMX2 2420-3010): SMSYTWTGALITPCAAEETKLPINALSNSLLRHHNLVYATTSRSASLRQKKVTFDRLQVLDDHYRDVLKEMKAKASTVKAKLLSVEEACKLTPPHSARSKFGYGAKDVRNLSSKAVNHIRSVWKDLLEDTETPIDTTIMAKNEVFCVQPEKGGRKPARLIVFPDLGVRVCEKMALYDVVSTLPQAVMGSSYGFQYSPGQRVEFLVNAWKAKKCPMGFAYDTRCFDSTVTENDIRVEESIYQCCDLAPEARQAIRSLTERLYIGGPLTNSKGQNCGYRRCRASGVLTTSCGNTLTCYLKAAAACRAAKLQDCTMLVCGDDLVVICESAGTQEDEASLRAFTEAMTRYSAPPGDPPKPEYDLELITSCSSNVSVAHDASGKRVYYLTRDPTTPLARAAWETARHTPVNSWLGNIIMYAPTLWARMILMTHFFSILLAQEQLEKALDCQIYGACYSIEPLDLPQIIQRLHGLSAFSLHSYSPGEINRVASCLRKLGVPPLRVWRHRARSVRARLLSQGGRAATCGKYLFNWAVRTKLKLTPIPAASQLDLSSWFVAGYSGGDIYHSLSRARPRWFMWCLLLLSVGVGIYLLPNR
Method: Incorporation of [^33P]-GMP into RNA was followed by absorption of the biotin labelled RNA polymer by streptavidin containing SPA beads. A synthetic template consisting of biotinylated 13mer-oligoG hybridised to polyrC was used as a homopolymer substrate.
b) Genotype 1b Full-Length Enzyme
Reaction Conditions were 0.5 μM [^33P]-GTP (20 Ci/mMol), 1 mM Dithiothreitol, 20 mM MgCl2, 5 mM MnCl2, 20 mM Tris-HCl, pH7.5, 1.6 μg/mL polyC/0.256 μM biotinylated oligoG13, 10% glycerol, 0.01% NP-40, 0.2 u/μL RNasin and 50 mM NaCl.
HCV RNA Polymerase (Recombinant full-length NS5B (Lohmann et al, J. Virol. 71 (11), 1997, 8416. ‘Biochemical properties of hepatitis C virus NS5B RNA-dependent RNA polymerase and identification of amino acid sequence motifs essential for enzymatic activity’) expressed in baculovirus and purified to homogeneity) was added to 4 nM final concentration.
5× concentrated assay buffer mix was prepared using 1M MnCl2 (0.25 mL), glycerol (2.5 mL), 10% NP-40 (0.025 mL) and Water (7.225 mL), Total 10 mL.
2× concentrated enzyme buffer contained 1M-Tris-HCl, pH7.5 (0.4 mL), 5M NaCl (0.2 mL), 1M-MgCl2 (0.4 mL), glycerol (1 mL), 10% NP-40 (10 μL), 1M DTT (20 μL) and water (7.97 mL), Total 10 mL.
Substrate Mix was prepared using 5× Concentrated assay Buffer mix (4 μL), [^33P]-GTP (10 μCi/μL, 0.02 μL), 25 μM GTP (0.4 μL), 40 u/μL RNasin (0.1 μL), 20 μg/mL polyrC/biotinylated-oligoG (1.6 μL), and Water (3.94 μL), Total 10 μL.
Enzyme Mix was prepared by adding 1 mg/ml full-length NS5B polymerase (1.5 μL) to 2.81 mL 2×-concentrated enzyme buffer.
The Assay was set up using compound (1 μL), Substrate Mix (10 μL), and Enzyme Mix (added last to start reaction) (10 μL), Total 21 μL.
The reaction was performed in a U-bottomed, white, 96-well plate. The reaction was mixed on a plate-shaker, after addition of the Enzyme, and incubated for 1 h at 22° C. After this time, the reaction was stopped by addition of 40 μL 1.875 mg/ml streptavidin SPA beads in 0.1 M EDTA. The beads were incubated with the reaction mixture for 1 h at 22° C. after which 120 μL 0.1 M EDTA in PBS was added. The plate was sealed, mixed centrifuged and incorporated radioactivity determined by counting in a Trilux (Wallac) or Topcount (Packard) Scintillation Counter.
After subtraction of background levels without enzyme, any reduction in the amount of radioactivity incorporated in the presence of a compound, compared to that in the absence, was taken as a measure of the level of inhibition. Ten concentrations of compounds were tested in three- or fivefold dilutions. From the counts, percentage of inhibition at highest concentration tested or IC50s for the compounds were calculated using GraFit 3, GraFit 4 or GraFit 5 (Erithacus Software Ltd.) software packages or a data evaluation macro for Excel based on XLFit Software (IDBS).

[2] = test system: Huh-7 HCV replicon cells (sub-line 5-15; genotype 1b); assay: Replicon ELISA cell based assay, genotype 1b; set-up: species or system HCV genotype 1b; details: Hepatitis C virus, Huh-7 genotype 1b replicon (sub-line 5-15), 72 hours
Method: 100 μL of medium containing 10% FCS were added to each well of clear, flat-bottomed 96 well microplates, excepting wells in the top row. Test compound was diluted in assay medium to twice the final required starting concentration from a 40 mM stock solution in DMSO. 200 μL of the starting dilution were introduced into two wells each in the top row and doubling dilutions made down the plate by the sequential transfer of 100 μL aliquots with thorough mixing in the wells; the final 100 μL were discarded. The two bottom rows were not used for compound dilutions. Huh-7 HCV replicon cell monolayers nearing confluency were stripped from growth flasks with versene-trypsin solution and the cells were resuspended in assay medium at either 2×10^5 cells/mL (sub-line 5-15; genotype 1b; Lohmann, V., Komer, F., Koch, J-O., Herian, U., Thielmann, L. And Bartenschlager, R., 1999, Science, 285, pp 110-113) or at 3×10^5 cells/mL (genotype 1a; Gu, B., Gates, A. T., Isken, O., Behrens, S. E. and Sarisky, R. T., J. Virol., 2003, 77, 5352-5359). 100 μL of cell suspension were added to all wells and the plates incubated at 37° C. for 72 hours in a 5% CO2 atmosphere.
Following incubation, the assay medium was aspirated from the plates. The cell sheets were washed by gentle immersion in phosphate buffered saline (PBS), which was then aspirated off, and fixed with acetone:methanol (1:1) for 5 minutes. Following a further wash with PBS, 100 μL of ELISA diluent (PBS+0.05% v/v Tween 20+2% w/v skimmed milk powder) were added to all wells and the plates incubated at 37° C. for 30 minutes on an orbital platform. The diluent was removed and each well then received 50 μL of a 1/200 dilution of anti-HCV specific, murine, monoclonal antibody (either Virostat #1872 or #1877), except for wells in one of the compound-free control rows which received diluent alone to act as negative controls. The plates were incubated at 37° C. for 2 hours and washed 3 times with PBS/0.05% Tween 20, then 50 μL of horseradish peroxidase conjugated, anti-mouse, rabbit polyclonal serum (Dako #P0260), diluted 1/1000, were added to all wells. The plates were incubated for a further hour, the antibody removed and the cell sheets washed 5 times with PBS/Tween and blotted dry. The assay was developed by the addition of 50 μL of ortho-phenylenediamine/peroxidase substrate in urea/citrate buffer (SigmaFast, Sigma #P-9187) to each well, and colour allowed to develop for up to 15 minutes. The reaction was stopped by the addition of 25 μL per well of 2 M sulphuric acid and the plates were read at 490 nm on a Fluostar Optima spectrophotometer.
The substrate solution was removed and the plates were washed in tap water, blotted dry and the cells stained with 5% carbol fuchsin in water for 30 minutes. The stain was discarded and the cell sheets washed, dried and examined microscopically to assess cytotoxicity.
The absorbance values from all compound-free wells that had received both primary and secondary antibodies were averaged to obtain a positive control value. The mean absorbance value from the compound-free wells that had not received the primary antibody was used to provide the negative (background) control value. The readings from the duplicate wells at each compound concentration were averaged and, after the subtraction of the mean background from all values, were expressed as a percentage of the positive control signal. The quantifiable and specific reduction of expressed protein detected by the ELISA in the presence of a drug can be used as a measure of replicon inhibition. GraFit software was used to plot the curve of percentage inhibition against compound concentration and derive the 50% inhibitory concentration (IC50) for the compound.

Structure (SMILES) | pIC50 [1] | pIC50 [2]
COc1cc(C(=O)N2[C@@H](c3nccs3)[C@@H](c3cnccn3)C[C@@]2(CC(C)C)C(=O)O)ccc1C(C)(C)C (racemic) [Compound A, rel-(2S,4S,5R)-2-Isobutyl-1-(4-tert-butyl-3-methoxybenzoyl)-4-(pyrazin-2-yl)-5-(1,3-thiazol-2-yl)pyrrolidine-2-carboxylic acid, reference compound] | 6.30 to 7.00 | 5.00 to 7.00
COc1cc(C(=O)N2[C@@H](c3ncc(C)s3)[C@@H](c3cnccn3)C[C@@]2(Cn2cccn2)C(=O)O)ccc1C(C)(C)C (racemic) [Example 9, rel-(2R,4S,5R)-1-(3-Methoxy-4-tert-butylbenzoyl)-5-(5-methyl-1,3-thiazol-2-yl)-4-(pyrazin-2-yl)-2-(1H-pyrazol-1-ylmethyl)pyrrolidine-2-carboxylic acid] | > 7.00 | > 7.00
COc1cc(C(=O)N2[C@@H](c3nccs3)[C@@H](c3cnccn3)C[C@@]2(Cc2ccsn2)C(=O)O)ccc1C(C)(C)C (racemic) [Example 7, rel-(2R,4S,5R)-1-(3-Methoxy-4-tert-butylbenzoyl)-4-(pyrazin-2-yl)-2-(1,2-thiazol-3-ylmethyl)-5-(1,3-thiazol-2-yl)pyrrolidine-2-carboxylic acid] | > 7.00 | > 7.00
COc1cc(C(=O)N2[C@@H](c3nccs3)[C@@H](c3cnccn3)C[C@@]2(Cn2cccn2)C(=O)O)ccc1C(C)(C)C (single isomer, unassigned; enantiomer a) [Example 12] | > 7.00 | > 7.00
COc1cc(C(=O)N2[C@@H](c3nccs3)[C@@H](c3cnccn3)C[C@@]2(Cc2ccccc2)C(=O)O)ccc1C(C)(C)C (racemic) [Compound G, rel-(2R,4S,5R)-1-(4-tert-Butyl-3-methoxybenzoyl)-2-(phenylmethyl)-4-(pyrazin-2-yl)-5-(1,3-thiazol-2-yl)pyrrolidine-2-carboxylic acid, reference compound] | 6.30 to 7.00 | 5.00 to 7.00
COc1cc(C(=O)N2[C@@H](c3ncc(C)s3)[C@@H](c3cnccn3)C[C@@]2(Cc2nccs2)C(=O)O)ccc1C(C)(C)C (racemic) [Example 13, rel-(2R,4S,5R)-1-(3-Methoxy-4-tert-butylbenzoyl)-5-(5-methyl-1,3-thiazol-2-yl)-4-(pyrazin-2-yl)-2-(1,3-thiazol-2-ylmethyl)pyrrolidine-2-carboxylic acid] | > 7.00 | > 7.00
COc1cc(C(=O)N2[C@@H](c3ncc(C)s3)[C@@H](c3cnccn3)C[C@@]2(Cc2ccsn2)C(=O)O)ccc1C(C)(C)C (racemic) [Example 5, rel-(2R,4S,5R)-1-(3-Methoxy-4-tert-butylbenzoyl)-5-(5-methyl-1,3-thiazol-2-yl)-4-(pyrazin-2-yl)-2-(1,2-thiazol-3-ylmethyl)pyrrolidine-2-carboxylic acid] | > 7.00 | > 7.00
COc1cc(C(=O)N2[C@@H](c3ncc(C)s3)[C@@H](c3cnccn3)C[C@@]2(Cc2cscn2)C(=O)O)ccc1C(C)(C)C (racemic) [Example 15, rel-(2R,4S,5R)-1-(3-Methoxy-4-tert-butylbenzoyl)-5-(5-methyl-1,3-thiazol-2-yl)-4-(pyrazin-2-yl)-2-(1,3-thiazol-4-ylmethyl)pyrrolidine-2-carboxylic acid] | > 7.00 | > 7.00
COc1cc(C(=O)N2[C@@H](c3nccs3)[C@@H](c3cnccn3)C[C@@]2(Cc2ccccn2)C(=O)O)ccc1C(C)(C)C (racemic) [Compound C, rel-(2R,4S,5R)-1-(4-tert-Butyl-3-methoxybenzoyl)-2-(pyridin-2-ylmethyl)-4-(pyrazin-2-yl)-5-(1,3-thiazol-2-yl)pyrrolidine-2-carboxylic acid, reference compound] | 6.30 to 7.00 | 5.00 to 7.00
COc1cc(C(=O)N2[C@@H](c3ncc(C)s3)[C@@H](c3cnccn3)C[C@@]2(Cc2nccs2)C(=O)O)ccc1C(C)(C)C (single isomer, unassigned; enantiomer a) [Example 14] | > 7.00 | > 7.00
COc1cc(C(=O)N2[C@@H](c3cncs3)[C@@H](c3cnccn3)C[C@@]2(CCSC)C(=O)O)ccc1C(C)(C)C (racemic) [Compound E, rel-(2R,4S,5R)-1-(4-tert-Butyl-3-methoxybenzoyl)-2-(2-(methylthio)ethyl)-4-(pyrazin-2-yl)-5-(1,3-thiazol-5-yl)-pyrrolidine-2-carboxylic acid, reference compound] | 6.30 to 7.00 | 5.00 to 7.00
COc1cc(C(=O)N2[C@@H](c3ncc(C)s3)[C@@H](c3cnccn3)C[C@@]2(Cn2cccn2)C(=O)O)ccc1C(C)(C)C (single isomer, unassigned; enantiomer a) [Example 10] | > 7.00 | > 7.00
COc1cc(C(=O)N2[C@@H](c3ncc(C)s3)[C@@H](c3cnccn3)C[C@@]2(Cc2ccsn2)C(=O)O)ccc1C(C)(C)C (single isomer, unassigned; enantiomer a) [Example 6] | > 7.00 | > 7.00
COc1cc(C(=O)N2[C@@H](c3nccs3)[C@@H](c3cnccn3)C[C@@]2(Cc2cscn2)C(=O)O)ccc1C(C)(C)C (racemic) [Example 1, rel-(2R,4S,5R)-1-(3-Methoxy-4-tert-butylbenzoyl)-4-(pyrazin-2-yl)-2-(1,3-thiazol-4-ylmethyl)-5-(1,3-thiazol-2-yl)pyrrolidine-2-carboxylic acid] | > 7.00 | > 7.00
